Pest or weed control, Corn plant response rating (crop injury, 0 = no effect, 100 = complete kill) and plant injury data for five compounds are collected here from patent US12077503B2, “Substituted cyclic amides and their use as herbicides” (FMC CORPORATION, priority 2015, dated 2024).

Holding throughout (type): in vivo
In assay [1] the test system is Galium (catchweed bedstraw, Galium aparine). Nature of the assay: Test A postemergence. As to conditions: Galium, post-emergence, 240 h, read-out: Plant response rating, Galium; for pest or weed control at 125 g/ha: 125 g ai/ha, postemergence, visual injury after approximately 10 d, 0 to 100 scale (0 no effect, 100 complete control); for pest or weed control at 31 g/ha: Postemergence, 31 g ai/ha, visual injury after approx. 10 d, 0 to 100 scale, 0 no effect, 100 complete control. In a few lines: (§1)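 Preemergence directed soil spray on seeded pots, or postemergence application to plants 2–10 cm, one- to two-leaf. Solvent mixture non-phytotoxic, with surfactant. Scored ~10 d later, visually, 0–100 vs untreated.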

The subject of the next assay is Kochia (Kochia scoparia). Nature of the assay: Test A postemergence. The conditions noted are these: Bassia scoparia, post-emergence, 240 h, read-out: Plant response rating, Kochia; for pest or weed control at 125 g/ha: 125 g ai/ha, postemergence, visual injury after approximately 10 d, 0 to 100 scale (0 no effect, 100 complete control); for pest or weed control at 31 g/ha: Postemergence, 31 g ai/ha, visual injury after approx. 10 d, 0 to 100 scale, 0 no effect, 100 complete control. Put shortly: as §1

Assay [2] has as its system barnyardgrass (Echinochloa crus-galli). Kind of assay: Test A postemergence. As to conditions: Echinochloa crus-galli, post-emergence, 240 h, read-out: Plant response rating, Barnyardgrass; for pest or weed control at 125 g/ha: 125 g ai/ha, postemergence, visual injury after approximately 10 d, 0 to 100 scale (0 no effect, 100 complete control); for pest or weed control at 31 g/ha: Postemergence, 31 g ai/ha, visual injury after approx. 10 d, 0 to 100 scale, 0 no effect, 100 complete control. In a few lines:
as §1

Assay [3] relates to blackgrass (Alopecurus myosuroides). Kind of assay: Test A postemergence. The conditions noted are these: Alopecurus myosuroides, post-emergence, 240 h, read-out: Plant response rating, Blackgrass; for pest or weed control at 125 g/ha: 125 g ai/ha, postemergence, visual injury after approximately 10 d, 0 to 100 scale (0 no effect, 100 complete control); for pest or weed control at 31 g/ha: Postemergence, 31 g ai/ha, visual injury after approx. 10 d, 0 to 100 scale, 0 no effect, 100 complete control. Put shortly:
as §1

A further assay deals with corn (Zea mays). Kind of assay: Test A postemergence. As to conditions: Zea mays, post-emergence, 240 h; for Corn plant response rating (crop injury, 0 = no effect, 100 = complete kill) at 125 g/ha: 125 g ai/ha, postemergence, visual injury after approximately 10 d, 0 to 100 scale (0 no effect, 100 complete control); for Corn plant response rating (crop injury, 0 = no effect, 100 = complete kill) at 31 g/ha: Postemergence, 31 g ai/ha, visual injury after approx. 10 d, 0 to 100 scale, 100 complete control. In a few lines:
as §1

Assay [4] relates to giant foxtail (Setaria faberii). Nature of the assay: Test A postemergence. The conditions noted are these: Setaria faberi, post-emergence, 240 h, read-out: Plant response rating, Foxtail, Giant; for pest or weed control at 125 g/ha: 125 g ai/ha, postemergence, visual injury after approximately 10 d, 0 to 100 scale (0 no effect, 100 complete control); for pest or weed control at 31 g/ha: Postemergence, 31 g ai/ha, visual injury after approx. 10 d, 0 to 100 scale, 0 no effect, 100 complete control. In a few lines: as §1

Assay [5] relates to pigweed (Amaranthus retroflexus). Nature of the assay: Test A postemergence. The conditions noted are these: Amaranthus retroflexus, post-emergence, 240 h, read-out: Plant response rating, Pigweed; for pest or weed control at 125 g/ha: 125 g ai/ha, postemergence, visual injury after approximately 10 d, 0 to 100 scale (0 no effect, 100 complete control); for pest or weed control at 31 g/ha: Postemergence, 31 g ai/ha, visual injury after approx. 10 d, 0 to 100 scale, 0 no effect, 100 complete control. Put shortly: as §1

Assay [6] has as its system ragweed (common ragweed, Ambrosia elatior). Kind of assay: Test A postemergence. As to conditions: Ambrosia artemisiifolia, post-emergence, 240 h, read-out: Plant response rating, Ragweed; for pest or weed control at 125 g/ha: 125 g ai/ha, postemergence, visual injury after approximately 10 d, 0 to 100 scale (0 no effect, 100 complete control); for pest or weed control at 31 g/ha: Postemergence, 31 g ai/ha, visual injury after approx. 10 d, 0 to 100 scale, 0 no effect, 100 complete control. In a few lines:
as §1

Assay [7] has as its system ryegrass, Italian (Italian ryegrass, Lolium multiflorum). Kind of assay: Test A postemergence. As to conditions: Lolium multiflorum, post-emergence, 240 h, read-out: Plant response rating, Ryegrass, Italian; for pest or weed control at 125 g/ha: 125 g ai/ha, postemergence, visual injury after approximately 10 d, 0 to 100 scale (0 no effect, 100 complete control); for pest or weed control at 31 g/ha: Postemergence, 31 g ai/ha, visual injury after approx. 10 d, 0 to 100 scale, 0 no effect, 100 complete control. Put shortly:
as §1

In assay [8] the test system is wheat (Triticum aestivum). Nature of the assay: Test A postemergence. As to conditions: Triticum aestivum, post-emergence, 240 h, read-out: Plant response rating, Wheat; for plant injury at 125 g/ha: 125 g ai/ha, postemergence, visual injury after approximately 10 d, 0 to 100 scale (0 no effect, 100 complete control); for plant injury at 31 g/ha: Postemergence, 31 g ai/ha, visual injury after approx. 10 d, 0 to 100 scale, 0 no effect, 100 complete control. In a few lines: as §1

For assay [9], the system named is barnyardgrass (Echinochloa crus-galli). Kind of assay: Test B flooded paddy test. The conditions noted are these: Echinochloa crus-galli, Flood, 250 g ai/ha; scale of 0 to 100 where 0 is no effect and 100 is complete control; read-out: Barnyardgrass plant response rating. In a few lines: (§2)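 Evaluation by eye, against controls, occurred 13–15 d post-treatment in a greenhouse, using a 0 (no effect) to 100 (complete control) scale. Application was into the paddy water, 3 cm deep over the soil, on 2-leaf plants.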

In assay [10] the test system is ducksalad (Heteranthera limosa). Kind of assay: Test B flooded paddy test. As to conditions: Heteranthera limosa, Flood, 250 g ai/ha; scale of 0 to 100 where 0 is no effect and 100 is complete control; read-out: Ducksalad plant response rating. Put shortly: as §2
The next assay deals with rice (Oryra sativa). Kind of assay: Test B flooded paddy test. The conditions noted are these: Oryza sativa, Flood, 250 g ai/ha; scale of 0 to 100 where 0 is no effect and 100 is complete control; read-out: Rice plant response rating. Put shortly:
as §2

Assay [11] concerns sedge, umbrella (small-flower umbrella sedge, Cyperus difformis). Kind of assay: Test B flooded paddy test. As to conditions: Cyperus difformis, Flood, 250 g ai/ha; scale of 0 to 100 where 0 is no effect and 100 is complete control; read-out: Sedge, Umbrella plant response rating. Put shortly: as §2

Regarding `Cc1ccc(NC(=O)[C@H]2C(=O)N(C)C[C@@H]2c2cc(F)cc(F)c2)c(F)c1F` [Compound 771], the pest or weed control at 125 g/ha in [1] came to 50%; with Kochia (Kochia scoparia), 50%; in [2] it was 90%; in [3] it was 70%; in assay [4], 90%; in assay [5], 0%. The pest or weed control at 125 g/ha in assay [6] and in [7] was 20% in each case. In the assay on corn (Zea mays), this compound yielded a Corn plant response rating (crop injury, 0 = no effect, 100 = complete kill) at 125 g/ha of 40%. Besides, in assay [8], the plant injury at 125 g/ha worked out at 30%. Also, the pest or weed control at 250 g/ha in [9] was 90%; in assay [10], 100%; in the assay with rice (Oryra sativa), 20%; in [11], 0%.

In the case of `CN1C[C@H](c2nccs2)[C@@H](C(=O)Nc2cccc(F)c2F)C1=O` [Compound 774], the pest or weed control at 125 g/ha (in [1]; in the assay on Kochia (Kochia scoparia); in assay [2]; in assay [3]; in [4]; in assay [5]) was 0% in each case. Besides, the pest or weed control at 125 g/ha in [6] and in assay [7] was 0% in each case. Besides, in the assay on corn (Zea mays), the Corn plant response rating (crop injury, 0 = no effect, 100 = complete kill) at 125 g/ha was 0%. Besides, in assay [8], the plant injury at 125 g/ha was 0%. For the same compound, the pest or weed control at 250 g/ha (in assay [9]; in assay [10]; in the assay with rice (Oryra sativa); in assay [11]) was 0% in each case.

On to `O=C1NC[C@H](c2ccc3c(c2)CCO3)[C@H]1C(=O)Nc1ccccc1F` [Compound 786], for which the pest or weed control at 125 g/ha was found to be 10% in assay [1]; 0% with Kochia (Kochia scoparia); 80% in [2]; 0% in assay [3]; 40% in [4]; 0% in assay [5]. Further, the pest or weed control at 125 g/ha in assay [6] and in [7] was 0% throughout. In the assay on corn (Zea mays), this compound showed a Corn plant response rating (crop injury, 0 = no effect, 100 = complete kill) at 125 g/ha of 0%. Further, the plant injury at 125 g/ha in [8] amounted to 0%. In addition, the pest or weed control at 250 g/ha came out at 0% in [9], 70% in assay [10], 0% in the assay on rice (Oryra sativa) and 40% in assay [11].

With `Cc1cc([C@H]2CN(C)C(=O)[C@@H]2C(=O)Nc2cccc(F)c2F)cc(C)c1C` [Compound 796], the pest or weed control at 125 g/ha in assay [1] worked out at 40%; in the assay with Kochia (Kochia scoparia), 0%; in assay [2], 90%; in assay [3], 30%; in assay [4], 90%; in [5], 20%. The figures for the pest or weed control at 125 g/ha in assay [6] and in [7] were 0% and 40%, respectively. Moreover, the pest or weed control at 31 g/ha in assay [1] turned out to be 0%; in the assay with Kochia (Kochia scoparia), 0%; in assay [2], 80%; in [3], 0%; in [4], 80%; in assay [5] it was 0%. Besides, the pest or weed control at 31 g/ha in assay [6] and in assay [7] was 0% throughout. Also, the Corn plant response rating (crop injury, 0 = no effect, 100 = complete kill) at 125 g/ha with corn (Zea mays) amounted to 90%. In the assay on corn (Zea mays), this compound displayed a Corn plant response rating (crop injury, 0 = no effect, 100 = complete kill) at 31 g/ha of 70%. Besides, the plant injury at 31 g/ha in assay [8] is 30%. For the same compound, the pest or weed control at 250 g/ha in [9] is 70%; in assay [10] it was 90%; in the assay on rice (Oryra sativa) it was 40%; in assay [11], 0%.

For `Cc1cc([C@H]2CN(C)C(=O)[C@@H]2C(=O)Nc2ccccc2F)cc(C)c1C` [Compound 797], the pest or weed control at 125 g/ha came out at 30% in assay [1]; 0% in the assay with Kochia (Kochia scoparia); 90% in assay [2]; 0% in assay [3]; 90% in [4]; 20% in assay [5]. Also, the pest or weed control at 125 g/ha in assay [6] was 0%; in assay [7], 40%. The pest or weed control at 31 g/ha in assay [1] amounted to 0%; with Kochia (Kochia scoparia), 0%; in assay [2], 90%; in assay [3], 0%; in assay [4], 80%; in assay [5], 0%. Moreover, the pest or weed control at 31 g/ha in assay [6] and in assay [7] was 0% in each case. Moreover, in the assay with corn (Zea mays), the Corn plant response rating (crop injury, 0 = no effect, 100 = complete kill) at 125 g/ha was determined as 70%. In the assay on corn (Zea mays), this compound registered a Corn plant response rating (crop injury, 0 = no effect, 100 = complete kill) at 31 g/ha of 60%. The plant injury at 31 g/ha in [8] came to 0%. Further, the pest or weed control at 250 g/ha in assay [9] amounted to 90%; in assay [10] it was 90%; in the assay on rice (Oryra sativa), 25%; in [11], 0%.
